According to patent publication US20250327027A1, “METHODS TO GENERATE ENHANCED TUMOR INFILTRATING LYMPHOCYTES THROUGH MICROFLUIDIC DELIVERY” (STEMCELL TECHNOLOGIES CANADA INC., priority 2021, published 2025):
Where “and” joins values, the source holds several entries; their conditions need not be identical. Equal entries are not always repeated.

Legend:
[1] = tested on: post-REP TILs; assay: Engineered TIL resistance to intrinsic apoptosis induced by Venetoclax and S63548 (Apotracker, Bcl-2 FACS); format: cell-based, human
Procedure: Fresh post-REP TILs were collected from a 6-well G-Rex plate, centrifuged at 400 rcf at room temperature, and then washed and resuspended to 3-10M/mL in AIM V and transferred to a T25 flask and cultured at 37° C. for 24 hr. The cells were then prepared for squeeze-processing. The cells were counted, filtered through a 40-um cell strainer, washed, and the concentration was adjusted to 60M/mL by adding XVivo-15.
As shown above in Table 13, Group A was used as a control (i.e., not contacted with any payload and not squeeze processed). Group 13 was squeeze processed without any payload at room temperature using a microfluidic constriction (70 μm depth, 4.5 un width, and 10 μm length) at 30 psi. Groups C-H were squeeze processed at room temperature with the payloads shown above, i.e., Group C: mbIL-7 mRNA; Group D: Bcl-2 mRNA; Group E: mbIL-7 mRNA+Bcl-2 mRNA; Group F: mbIL-2 mRNA; Group G: mbIL-2 mRNA+Bcl-2 mRNA; Group H: mbIL-2 mRNA+mbIL-7 mRNA+Bcl-2 mRNA. Groups C-H were squeeze processed using the same conditions as in Group B (i.e., microfluidic constriction: 70 μm depth, 4.5 μm width, and 10 μm length; at 30 psi). […]
At 24 hours, 200 ul of cells were aspirated and centrifuged at 400 ref for 4 minutes at room temperature. […] The cells were then analyzed using an Attune Flow cytometer.

[2] = tested on: melanoma and colorectal TILs; assay: Post thaw analysis of cryopreserved squeeze processed TILs (effect of DMSO and HSA); format: cell-based; details: DMSO 0% to 5%
Procedure: To evaluate whether freeze-thaw (including any effect from one or more of the cryopreservatives) has an effect on the squeeze processed TILs described herein, the following methods were used and the mRNA translation and phenotypic expression were assessed. Briefly, cryopreserved, squeezed melanoma and colorectal TILs were thawed and resuspended in CTS OpTmizer media. Post thaw cell recovery and viability were measured via NC-200. Cells were plated in tissue culture-treated plates and incubated for 4, 24 hours, and 8 days in a 37° C. incubator. The TILs were squeezed were assessed at each time point including t=0 (immediately post thaw) by flow cytometry for viability, surface levels of mbIL-2 and mbIL-12, and phenotypic markers such as CCR7, CD45RO, CD62L, CD127, KLRG-1, CD25, CD69, CD39, CD103, and CD25.
To assess the potential impact from DMSO, the following TILs were formulated in varying concentrations of DMSO (i.e., 0%, 1.25%, 2.5%, and 5%): (1) TILs squeeze processed with mRNA encoding membrane-bound LL-2 and mRNA encoding IL-12; and (2) non-squeeze processed TILs. Each of the formulated samples also contained 5% human serum albumin. Then, the TILs were cryopreserved and subsequently thawed as described above.

[3] = tested on: TILs; assay: Effect of cytokine (IL-2 or IL-15) during TIL expansion (colorectal tumor); format: cell-based; details: for Cell Count on Day 13 / Viability on Day 13: replicate wells
Procedure: Briefly, freshly resected colorectal tumor was rinsed in 1× Hank's Balanced Salt Solution (HBSS) with 10 µg/mL gentamicin and dissected into 8-27 mm^3 fragments using a forceps and scalpel. […] The G-Rex6M plate was then placed in a 37° C., 5% CO2 incubator for 3 days.
On day 3, the G-Rex6M plate was removed from the incubator. […] The G-Rex6M plate was returned to the 37° C., 5% CO2 incubator. On day 7 and 10, the G-Rex6M plate was removed from the incubator. […] The G-Rex6M plate was returned to the 37° C., 5% CO2 incubator.
[…] The number and viability of the TILs was assessed using a NucleoCounter NC-200.

[4] = tested on: post-REP TILs; assay: mbIL-7 and Bcl-2 engineered TILs resistance to rhIL-7 sink effect (viability); format: cell-based, human; details: day 5; 250 μg/mL mbIL-7 mRNA
Procedure: Three 50M cell vials were thawed and diluted with FACs buffer. […] Cells were transferred to a T75 flask and cultured at 37° C. To allow the cells to recover from thaw, cells were cultured for 72 hr.
Cells were prepared for squeeze-processing. Cells were collected, centrifuged at 400 rcf at room temperature, and then washed, resuspended to 3-10M/mL in AIM V media without rhIL-2 to remove rhIL-2-dependent support prior to squeeze processing, transferred to a T25 flask, and cultured at 37° C. for 24 hours. The cells were then counted, filtered through a 40-um cell strainer, washed, and the concentration was adjusted to 50M/mL by adding XVivo-15.
As shown above in Table 19, Group A was used as a control (i.e., not contacted with any payload and not squeeze processed). Group 13 was squeeze processed without any payload at room temperature using microfluidic constrictions (70 μm depth, 4.5 m width, and 10 μm length) at 30 psi. […]
At days 1 and 5, 200 ul of cells were aspirated and centrifuged at 400 rcf for 4 minutes at room temperature. […] The cells were then analyzed using an Attune Flow cytometer.

[5] = tested on: post-REP TILs; assay: Proliferative capacity of CD62L positive mbIL-2 and mbIL-12 engineered TILs; format: cell-based, human; details: baseline CD62L positive and baseline CD62L negative fractions; day 4
Procedure: Fresh TILs from two donors on day 14 of REP were prepared for squeeze-processing Donors were processed in parallel throughout the experiment. TILs were centrifuged at 400 rcf for 4 minutes at room temperature. The supernatant was aspirated, and the cell populations were separately resuspended in 1 mL FACs buffer Cells were incubated at 4 C for 20 minutes with fluorescent anti-human antibody targeting CD62L. After incubation 150 μL of FACs isolation buffer were added to each sample and the samples were spun at 400 rcf for 4 minutes. Cells were then isolated using magnetic beads that select based on fluorescence as a proxy for CD62L expression. Cell fractions were incubated for 20 minutes at 37 C with 1 μM final cytoplasmic dyes; CD62L positive cells were incubated with dye that excites/emits at 405/450 nm and CD62L negative cells were incubated with dye that excites/emits at […]. The cells were then pooled, counted, filtered through a 40-um cell strainer, washed, and the concentration was adjusted to 50-80M/mL by adding XVivo-15.
As shown above in Table 18, Groups A and E were used as controls (i.e., not contacted with any payload and not squeeze processed). […]
At days 1, 4, and 6, 200 ul of cells were aspirated and centrifuged at 400 rcf for 4 minutes at room temperature. […] The cells were then analyzed using an Attune Flow cytometer.

Molecule: CC1(C)CCC(CN2CCN(c3ccc(C(=O)NS(=O)(=O)c4ccc(NCC5CCOCC5)c([N+](=O)[O-])c4)c(Oc4cnc5[nH]ccc5c4)c3)CC2)=C(c2ccc(Cl)cc2)C1 [Venetoclax]
- apoptosis as measured by Apotracker dye ([1]; 10, 100 or 1000 nM each of Venetoclax and S63548, 24 hours): induced apoptosis
- concentration with strongest dynamic range of cell killing ([1]; Venetoclax and S63548 together): 10 nM

Molecule: C[S+](C)[O-] [DMSO]
- translation of the delivered mRNAs post-thaw [2]: did not have a negative impact on the translation of the delivered mRNAs
- viability over time after thaw ([2]; squeeze-processed and unprocessed TILs): less DMSO also led to lower viability over time after thaw

Molecule: IL-15: recombinant IL-15 added to culture media
- Cell Count on Day 13 ([3]; 500 U/mL IL-15): 1.92 × 10^7 and 8.32 × 10^6
- Viability on Day 13 ([3]; 500 U/mL IL-15): 96.5% and 93.3%
- Cell Count on Day 13 ([3]; 3,000 U/mL IL-15): 3.34 × 10^6 and 2.96 × 10^7
- Viability on Day 13 ([3]; 3,000 U/mL IL-15): 94.8% and 91.3%
- TIL expansion in culture ([3]; colorectal tumor fragments): promote TIL expansion

B1: rhIL-7: recombinant human (rh) IL-7 (protein, UniProt P13232 26-177, looked up)
Interleukin-7: DCDIEGKDGKQYESVLMVSIDQLLDSMKEIGSNCLNNEFNFFKRHICDANKEGMFLFRAARKLRQFLKMNSTGDFDLHLLKVSEGTTILLNCTGQVKGRKPAALGEAQPTKSLEENKSLKEQKKLNDLCFLKRLLQEIKTCWNKILMGTKEH
- rhIL-7 support giving viability equal to mbIL-7-engineered TILs [4]: 10 ng/mL

B2: rhIL-12: recombinant human IL-12 added to culture (protein, UniProt P29459 23-219; P29460 23-328, looked up)
Interleukin-12 subunit alpha: RNLPVATPDPGMFPCLHHSQNLLRAVSNMLQKARQTLEFYPCTSEEIDHEDITKDKTSTVEACLPLELTKNESCLNSRETSFITNGSCLASRKTSFMMALCLSSIYEDLKMYQVEFKTMNAKLLMDPKRQIFLDQNMLAVIDELMQALNFNSETVPQKSSLEEPDFYKTKIKLCILLHAFRIRAVTIDRVMSYLNAS
Interleukin-12 subunit beta: IWELKKDVYVVELDWYPDAPGEMVVLTCDTPEEDGITWTLDQSSEVLGSGKTLTIQVKEFGDAGQYTCHKGGEVLSHSLLLLHKKEDGIWSTDILKDQKEPKNKTFLRCEAKNYSGRFTCWWLTTISTDLTFSVKSSRGSSDPQGVTCGAATLSAERVRGDNKEYEYSVECQEDSACPAAEESLPIEVMVDAVHKLKYENYTSSFFIRDIIKPDPPKNLQLKPLKNSRQVEVSWEYPDTWSTPHSYFSLTFCVQVQGKSKREKKDRVFTDKTSATVICRKNASISVRAQDRYYSSSWSEWASVPCS
- CD62L positive cells [5]: enriched
